# Laboratory results reported in publication PMC10090446, “Population pharmacokinetic analysis and dosing optimization of polymyxin B in critically ill patients” (Frontiers in Pharmacology, 2023).
# Where two headings read alike, the source gives them in different places. Positions of bridges follow the written chain, without caps; N, C: chain ends. Non-standard residues stand in square brackets, D forms with d. Residues, ends and D or L forms follow the SMILES beside them. *: point of attachment. X1 = CC[C@H](C)CCCCC(=O)*; Dab = NCC[C@H](N)C(=O)O
# Experiment: Steady-state plasma concentrations of polymyxin B (total of B1, B2, B1-Ile) by LC-MS/MS
# Assay type: in vivo
# Details: human, iv, read-out: OUT (observed polymyxin B plasma concentration)
# Description: We gather data from critically ill patients (≥18 years old) who were given intravenous drip polymyxin B treatment with blood concentration monitoring at the hospital from November 2021 to September 2022. The attending physician decided to administer polymyxin B. At the same time, patients who received continuous renal replacement therapy (CRRT) (n = 10) or extracorporeal membrane oxygenation (ECMO) (n = 2) at the time of blood collection were excluded. Patients’ information, including gender, age, WT, serum creatinine (Scr), CCR, ALB, APACHE-II, infection diagnosis, and pathogenic bacteria, were obtained from the electronic system for medical records. CCR was generated by adopting the Cockcroft—Gault equation with WT and age ([Cucci et al., 2022]). The Ethical Committees of the Second Affiliated Hospital of the South China University of Technology authorized the study (K-2022-020-01).
# Patients were treated with polymyxin B, and plasma samples were collected ≥ 48 h after the treatment. Each patient contributed clinical samples, of which 37.5% (n = 24) were sampled with troughs (within 1 h before administration), 35.9% (n = 23) were sampled with peaks (within 1 h after the end of the infusion), and 26.6% (n = 17) were sampled at 6-8 h after the infusion. The dosing regimens of polymyxin B were a loading dose of 100 mg–150 mg and a maintenance dose of 50 mg–75 mg q12h, and the infusion duration was about 1–2 h. In preparation for analysis, samples were centrifuged for 10 min at 3000 r min^-1 after collection, and the upper plasma after centrifugation was stored at −20°C.
# According to previous studies, total polymyxin B1, polymyxin B2, and polymyxin B1-Ile concentrations in human blood plasma were quantified using LC-MS/MS ([Meng et al., 2016]; [Hee et al., 2017]). The standard used in our experiments was the USP standard with the batch number of R104F0. The chromatographic column was the Kinetex C18 (3 μm × 2.1 mm×100 mm. Phenomenex). A: B mobile phase was 0.1% formic acid to acetonitrile. With changes in the linear velocity ratio, gradient elution was as follows: 15% −15% B, 0–2.0 min; 15%–10% B, 2.01–4.0 min; 10%–30% B, 4.01–5.0 min; 15% B, 5.01 min; and 15%–15% B, 5.02–10 min. The flow rate was constrained to 0.8 mL min^-1, and the column temperature was set to 40°C. The parent/daughter ion mass ratios used in the mass spectrometry were m/z 602.6/241.2 (polymyxin B1 and B1-Ile) and m/z 595.6/202.1 (polymyxin B2). Plasma samples (100 μL) were collected from centrifuged blood samples, mixed with 500 μL precipitant (acetonitrile with 6.67% formic acid) and vortexed well for 1 min. The lower limit of quantification (LLOQ) of the bioanalytical method used for quantifying polymyxin B1, B2, and B1-Ile concentrations was 0.19, 0.02 and 0.02 mg L^-1, respectively. The linear relationships of polymyxin B1, B2, and B1-Ile concentrations in the range of 0.19–24.13 mg L^-1, 0.02–2.7 mg L^-1 and 0.02–2.38 mg L^-1 were considered good (R^2 = 0.99677, R^2 = 0.99656, R^2 = 0.99484) and the accuracy was within 95.3%–105.3%, 92.2%–104.8%, and 95.8%–105.4%. […] Finally, 200 μL of the supernatant from the centrifugation of the combination at 14,000 r min^-1 for 10 min was employed to measure the amounts of polymyxin B.
smiles,measurement,setting,value
CC[C@H](C)CCCCC(=O)N[C@@H](CCN)C(=O)N[C@H](C(=O)N[C@@H](CCN)C(=O)N[C@H]1CCNC(=O)[C@H]([C@@H](C)O)NC(=O)[C@H](CCN)NC(=O)[C@H](CCN)NC(=O)[C@H](CC(C)C)NC(=O)[C@@H](Cc2ccccc2)NC(=O)[C@H](CCN)NC1=O)[C@@H](C)O [polymyxin B] (X1-[Dab]T[Dab][Dab][Dab][dF]L[Dab][Dab]T; lactam 4-C),level at 66 h,"50 mg, patient ID 18, TIME 66, DOSE 50 at 0, 12, 24, 36, 48, 60, DUR 2, WT 80, CCR 169.94, ALB 41.5, APACHE 29, single measurement",1.8 µg/mL
same,level at 72 h,"50 mg, patient ID 18, TIME 72, DOSE 50 at 0, 12, 24, 36, 48, 60, DUR 2, WT 80, CCR 169.94, ALB 41.5, APACHE 29, single measurement",0.839 µg/mL
same,level at 97 h,"75 mg, patient ID 12, TIME 97, DOSE 75 from 0, ADDL 9, II 12, DUR 1, WT 60, CCR 104.47, ALB 33.9, APACHE 24, single sample",9.56 µg/mL
same,level at 102 h,"75 mg, patient ID 12, TIME 102, DOSE 75 from 0, ADDL 9, II 12, DUR 1, WT 60, CCR 104.47, ALB 33.9, APACHE 24, single sample",4.84 µg/mL
same,level at 108 h,"75 mg, patient ID 12, TIME 108, DOSE 75 from 0, ADDL 9, II 12, DUR 1, WT 60, CCR 104.47, ALB 33.9, APACHE 24, single sample",2.99 µg/mL
same,level at 74.33 h,"75 mg, patient ID 15, TIME 74.33, after DOSE 75 at 73 (DUR 1, ADDL 4, II 12), WT 50, CCR 35.85, ALB 29.5, APACHE 39, single measurement",8.9 µg/mL
same,level at 217 h,"75 mg, patient ID 22, TIME 217, DOSE 75 every 12 from 0 (ADDL 18), DUR 1, WT 60, CCR 155.65, ALB 24.3, APACHE 30, single measurement",3.62 µg/mL
same,level at 222 h,"75 mg, patient ID 22, TIME 222, DOSE 75 every 12 from 0 (ADDL 18), DUR 1, WT 60, CCR 155.65, ALB 24.3, APACHE 30, single measurement",2.06 µg/mL
same,level at 228 h,"75 mg, patient ID 22, TIME 228, DOSE 75 every 12 from 0 (ADDL 18), DUR 1, WT 60, CCR 155.65, ALB 24.3, APACHE 30, single measurement",1.06 µg/mL
same,level at 60.5 h,"patient ID 1, TIME 60.5, DOSE 100 at 0 then 50 every 12 to 48, DUR 1, WT 58, CCR 69.29, ALB 23.1, APACHE 30, single sample",2.27 µg/mL
same,level at 325 h,"patient ID 3, TIME 325, DOSE 100 at 0 then 50 from 12, ADDL 27, II 12, DUR 1, WT 57, CCR 61.5, ALB 33.8, APACHE 21, single sample",6.6 µg/mL
same,level at 330 h,"patient ID 3, TIME 330, DOSE 100 at 0 then 50 from 12, ADDL 27, II 12, DUR 1, WT 57, CCR 61.5, ALB 33.8, APACHE 21, single sample",2.93 µg/mL
same,level at 336 h,"patient ID 3, TIME 336, DOSE 100 at 0 then 50 from 12, ADDL 27, II 12, DUR 1, WT 57, CCR 61.5, ALB 33.8, APACHE 21, single sample",3.14 µg/mL
same,level at 59 h,"patient ID 4, TIME 59, DOSE 100 at 0 then 50 every 12 to 48, DUR 1, WT 58, CCR 61.95, ALB 25.5, APACHE 28, single sample",0.863 µg/mL
same,level at 64.5 h,"patient ID 4, TIME 64.5, DOSE 100 at 0 then 50 every 12 to 60, DUR 1, WT 58, CCR 61.95, ALB 25.5, APACHE 28, single sample",2.33 µg/mL
same,level at 167.9 h,"patient ID 5, TIME 167.9, DOSE 100 at 0 then 50 from 12, ADDL 15, II 12, DUR 1, WT 60, CCR 41.15, ALB 36.1, APACHE 21, single sample",2.9 µg/mL
same,level at 182 h,"patient ID 5, TIME 182, DOSE 100 at 0 then 50 from 12, ADDL 15, II 12, DUR 1, WT 60, CCR 41.15, ALB 36.1, APACHE 21, single sample",4.51 µg/mL
same,level at 186 h,"patient ID 5, TIME 186, DOSE 100 at 0 then 50 from 12, ADDL 15, II 12, DUR 1, WT 60, CCR 41.15, ALB 36.1, APACHE 21, single sample",3.29 µg/mL
same,level at 73.25 h,"patient ID 10, TIME 73.25, DOSE 100 at 0 then 50 every 12 to 72, DUR 1, WT 62, CCR 72.12, ALB 33.9, APACHE 17, single sample",6.73 µg/mL
same,level at 79 h,"patient ID 10, TIME 79, DOSE 100 at 0 then 50 every 12 to 72, DUR 1, WT 62, CCR 72.12, ALB 33.9, APACHE 17, single sample",6.23 µg/mL
same,level at 84.42 h,"patient ID 10, TIME 84.42, DOSE 100 at 0 then 50 every 12 to 72, DUR 1, WT 62, CCR 72.12, ALB 33.9, APACHE 17, single sample",3.89 µg/mL
same,level at 98 h,"patient ID 11, TIME 98, DOSE 100 at 0 then 50 every 12 to 96, DUR 2, WT 55, CCR 67.29, ALB 30.9, APACHE 46, single sample",5.21 µg/mL
same,level at 102 h,"patient ID 11, TIME 102, DOSE 100 at 0 then 50 every 12 to 96, DUR 2, WT 55, CCR 67.29, ALB 30.9, APACHE 46, single sample",2.53 µg/mL
same,level at 105.5 h,"patient ID 11, TIME 105.5, DOSE 100 at 0 then 50 every 12 to 96, DUR 2, WT 55, CCR 67.29, ALB 30.9, APACHE 46, single sample",2.19 µg/mL
same,level at 145 h,"patient ID 13, TIME 145, DOSE 75 at 0 then 50 every 12 from 12 (ADDL 12), DUR 1, WT 57, CCR 41.39, ALB 24.4, APACHE 18, single measurement",2.59 µg/mL
same,level at 150 h,"patient ID 13, TIME 150, DOSE 75 at 0 then 50 every 12 from 12 (ADDL 12), DUR 1, WT 57, CCR 41.39, ALB 24.4, APACHE 18, single measurement",1.83 µg/mL
same,level at 156 h,"patient ID 13, TIME 156, DOSE 75 at 0 then 50 every 12 from 12 (ADDL 12), DUR 1, WT 57, CCR 41.39, ALB 24.4, APACHE 18, single measurement",1.09 µg/mL
same,level at 50.5 h,"patient ID 14, TIME 50.5, DOSE 100 at 0, 50 at 12, 24, 36, 50.8, DUR 1, WT 60, CCR 111.4, ALB 25.4, APACHE 25, single measurement",1.14 µg/mL
same,level at 51.8 h,"patient ID 14, TIME 51.8, DOSE 100 at 0, 50 at 12, 24, 36, 50.8, DUR 1, WT 60, CCR 111.4, ALB 25.4, APACHE 25, single measurement",4.06 µg/mL
same,level at 57.8 h,"patient ID 14, TIME 57.8, DOSE 100 at 0, 50 at 12, 24, 36, 50.8, DUR 1, WT 60, CCR 111.4, ALB 25.4, APACHE 25, single measurement",1.82 µg/mL
same,level at 72.66 h,"patient ID 15, TIME 72.66, DOSE 100 at 0, 50 at 12, 100 at 24, 75 at 36, 48, 60, WT 50, CCR 35.85, ALB 29.5, APACHE 39, single measurement",3.11 µg/mL
same,level at 54.67 h,"patient ID 19, TIME 54.67, DOSE 100 at 0 then 50 every 12 from 12 (ADDL 3), DUR 1, WT 60, CCR 35.69, ALB 25.6, APACHE 19, single measurement",1.86 µg/mL
same,level at 60 h,"patient ID 19, TIME 60, DOSE 100 at 0 then 50 every 12 from 12 (ADDL 3), DUR 1, WT 60, CCR 35.69, ALB 25.6, APACHE 19, single measurement",1.3 µg/mL
same,level at 73.45 h,"patient ID 20, TIME 73.45, DOSE 100 at 0 then 50 every 12 from 12 (ADDL 6), DUR 1.45, WT 75, CCR 84.86, ALB 29.5, APACHE 18, single measurement",4.27 µg/mL
same,level at 77.45 h,"patient ID 20, TIME 77.45, DOSE 100 at 0 then 50 every 12 from 12 (ADDL 6), DUR 1.45, WT 75, CCR 84.86, ALB 29.5, APACHE 18, single measurement",2.7 µg/mL
same,level at 84 h,"patient ID 20, TIME 84, DOSE 100 at 0 then 50 every 12 from 12 (ADDL 6), DUR 1.45, WT 75, CCR 84.86, ALB 29.5, APACHE 18, single measurement",1.96 µg/mL
same,level at 50 h,"patient ID 21, TIME 50, DOSE 150 at 0 then 75 every 12 from 12 (ADDL 4), DUR 2, WT 70, CCR 56.54, ALB 38.1, APACHE 40, single measurement",7.03 µg/mL
same,level at 54 h,"patient ID 21, TIME 54, DOSE 150 at 0 then 75 every 12 from 12 (ADDL 4), DUR 2, WT 70, CCR 56.54, ALB 38.1, APACHE 40, single measurement",3.83 µg/mL
